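Assay format: 96-well plates, 48-hour exposure. GI50 = concentration required for 50% inhibition of growth.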 The source made the active and inactive calls. Cut-off read from the data, not from the text of the source: active = GI50 up to about 1.1 µM and inactive = higher.
Key:
Assay in all cases: DTP human tumour cell line panel, 48 h
[1] = tested on: BT-549
[2] = tested on: COLO 205
[3] = tested on: HOP-62
[4] = tested on: HT-29
[5] = tested on: IGROV-1
[6] = tested on: MDA-MB-435
[7] = tested on: MDA-N
[8] = tested on: NCI-H226
[9] = tested on: NCI-H522
[10] = tested on: OVCAR-5
[11] = tested on: OVCAR-8
[12] = tested on: SF-295
[13] = tested on: SK-MEL-28
[14] = tested on: SK-MEL-2
[15] = tested on: SK-MEL-5
[16] = tested on: SK-OV-3
[17] = tested on: SNB-75
[18] = tested on: TK-10
[19] = tested on: U-251

SMILES | GI50 [1] | GI50 [2] | GI50 [3] | GI50 [4] | GI50 [5] | GI50 [6] | GI50 [7] | GI50 [8] | GI50 [9] | GI50 [10] | GI50 [11] | GI50 [12] | GI50 [13] | GI50 [14] | GI50 [15] | GI50 [16] | GI50 [17] | GI50 [18] | GI50 [19]
O=C(O)Cn1ccnc1[N+](=O)[O-] | > 100 µM (inactive) | > 100 µM (inactive) | > 100 µM (inactive) | > 100 µM (inactive) | > 100 µM (inactive) | > 100 µM (inactive) | > 100 µM (inactive) | > 100 µM (inactive) | > 100 µM (inactive) | > 100 µM (inactive) | > 100 µM (inactive) | > 100 µM (inactive) | > 100 µM (inactive) | > 100 µM (inactive) | > 100 µM (inactive) | > 100 µM (inactive) | > 100 µM (inactive) | > 100 µM (inactive) | > 100 µM (inactive)
CC1=C(C(=O)OC(C)C)C(c2ccccc2[N+](=O)[O-])C(C(=O)OC(CO[N+](=O)[O-])CO[N+](=O)[O-])=C(C)N1 (stereo not given) | 3.52 µM (inactive) | 5.24 µM (inactive) | 3.07 µM (inactive) | 2.81 µM (inactive) | 5.26 µM (inactive) | 3.48 µM (inactive) | 2.79 µM (inactive) | 7.16 µM (inactive) | 2.42 µM (inactive) | 13.8 µM (inactive) | 3.28 µM (inactive) | 2.1 µM (inactive) | 4.01 µM (inactive) | 2.99 µM (inactive) | 2.7 µM (inactive) | 3.15 µM (inactive) | 1.54 µM (inactive) | 6.27 µM (inactive) | 2.99 µM (inactive)
Clc1sc(Cl)c2c1[C@H](Cl)C[C@@H]2Cl | 26.5 µM (inactive) | 29.2 µM (inactive) | 38.5 µM (inactive) | 32.7 µM (inactive) | 17.4 µM (inactive) | 18.2 µM (inactive) | 20.6 µM (inactive) | 19.8 µM (inactive) | 1.07 µM (active) | 29.2 µM (inactive) | 18.4 µM (inactive) | 35.3 µM (inactive) | 17.5 µM (inactive) | 22.5 µM (inactive) | 32.4 µM (inactive) | 54 µM (inactive) | 20 µM (inactive) | 39.5 µM (inactive) | 20.9 µM (inactive)
C[C@H](CCC(=O)O)[C@H]1CC[C@H]2[C@@H]3[C@H](O)C[C@@H]4C[C@H](O)CC[C@]4(C)[C@H]3C[C@H](O)[C@]12C | > 100 µM (inactive) | > 100 µM (inactive) | > 100 µM (inactive) | > 100 µM (inactive) | > 100 µM (inactive) | > 100 µM (inactive) | > 100 µM (inactive) | > 100 µM (inactive) | > 100 µM (inactive) | > 100 µM (inactive) | > 100 µM (inactive) | > 100 µM (inactive) | > 100 µM (inactive) | > 100 µM (inactive) | > 100 µM (inactive) | > 100 µM (inactive) | > 100 µM (inactive) | > 100 µM (inactive) | > 100 µM (inactive)
O=C(Sc1c(-c2ccccc2)c(=O)n(-c2ccccc2)c(=S)n1-c1ccccc1)c1ccco1 | > 100 µM (inactive) | > 100 µM (inactive) | > 100 µM (inactive) | > 100 µM (inactive) | > 100 µM (inactive) | > 100 µM (inactive) | > 90.6 µM (inactive) | > 100 µM (inactive) | > 76.9 µM (inactive) | > 100 µM (inactive) | > 100 µM (inactive) | > 100 µM (inactive) | > 100 µM (inactive) | > 100 µM (inactive) | 97.9 µM (inactive) | > 100 µM (inactive) | 72.1 µM (inactive) | > 100 µM (inactive) | > 100 µM (inactive)

Source: ChEMBL document CHEMBL1201862, “PubChem BioAssay data set” (2004)
